Data reported in paper PMC5441637, “The mitochondrial SIR2 related protein 2 (SIR2RP2) impacts Leishmania donovani growth and infectivity” (PLoS Neglected Tropical Diseases, 2017).

These molecules were tested against T1, SIR2 related protein 2 (LdSIR2RP2) (Leishmania donovani, UniProt A0A3S7WXV8) (assay: […]NAD+ ADP-ribosyltransferase assay on calf thymus histones, SDS-PAGE/PhosphorImager).
T1 construct: gene LdCL_230021600; full-length recombinant LdSIR2RP2 (complete ORF, 320 aa; MBP/His tag removed by TEV)
Assay type: biochemical

T1 sequence (A0A3S7WXV8 entry or part of it): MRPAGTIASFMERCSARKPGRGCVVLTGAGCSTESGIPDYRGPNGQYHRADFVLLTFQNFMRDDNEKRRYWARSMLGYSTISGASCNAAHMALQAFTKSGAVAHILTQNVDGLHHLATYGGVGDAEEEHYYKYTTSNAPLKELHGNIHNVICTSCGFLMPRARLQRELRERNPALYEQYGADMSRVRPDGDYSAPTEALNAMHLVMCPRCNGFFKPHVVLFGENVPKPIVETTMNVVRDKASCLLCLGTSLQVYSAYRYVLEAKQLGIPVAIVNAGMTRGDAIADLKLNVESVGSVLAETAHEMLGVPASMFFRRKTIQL

| SMILES | [32P]NAD+ ADP-ribosyltransferase assay on calf thymus histones, SDS-PAGE/Phospho |
| --- | --- |
| NC(=O)C1CCCc2c1[nH]c1ccc(Cl)cc21 (stereo not drawn) [Ex-527, 6-chloro-2,3,4,9-tetrahydro-1H-carbazole-1-carboxamide] | ~ 50 μM |
| O=c1[nH]c(=S)[nH]c(-c2ccccc2)c1Cc1c(O)ccc2ccccc12 [cambinol] | ~ 2.5 μM |
| NC(=O)c1cccnc1 [nicotinamide] | ~ 50 μM |
